Experimental data taken from ChEMBL document CHEMBL3351435, “New pyrrole derivatives with potent tubulin polymerization inhibiting activity as anticancer agents including hedgehog-dependent cancer” (J Med Chem, 2014).
Calls of active or inactive are those of the source. The calls are words filed in the database; no cut-off is given here.

Assays:
Tubulin (Homo sapiens) [1] = biological target: T1, Tubulin (Homo sapiens) (UniProt P68371+Q9H4B7+P0DPH7+P68366+Q13509+Q71U36+P04350+Q3ZCM7+P07437+P68363+Q9BQE3+Q6PEY2+Q13885+Q9BVA1+Q9BUF5); assay: Displacement of [3H]colchicine from tubulin (unknown origin) at 5 uM after 10 mins; format: protein-complex assay
Tubulin = assay: Inhibition of tubulin (unknown origin) polymerization incubated 15 mins prior to GTP addition by spectrophotometry; format: protein-complex assay, Homo sapiens
K562 [2] = assay: Cell cycle arrest in human K562 cells assessed as mitotic index at 10 times IC50 (reference value: […] +/- […]%); format: functional
MCF7 = assay: Cytotoxicity against human MCF7 cells after 96 hrs by Giemsa staining-based light microscopy; format: functional, cell-based; conditions: MCF7, 96 h
Tubulin (Homo sapiens) [3] = biological target: T1, Tubulin (Homo sapiens); assay: Inhibition of tubulin (unknown origin) polymerization at 20 uM incubated 15 mins prior to GTP addition by spectrophotometry; format: protein-complex assay
HT-29 = assay: Cytotoxicity against human HT-29 cells assessed as growth inhibition after 48 hrs by MTT method; format: functional, cell-based; conditions: HT-29, 48 h
cells = conditions: Homo sapiens, OVCAR-8, 96 h
Description: Cytotoxicity against human OVCAR8 cells assessed as growth inhibition after 96 hrs by Giemsa staining-based light microscopy

A549 = assay: Cytotoxicity against human A549 cells assessed as growth inhibition after 48 hrs by MTT method; format: functional, cell-based; conditions: A549, 48 h
[4] = Cytotoxicity against human MESSA/DX5 cells assessed as growth inhibition after 72 hrs by CellTitre-Glo assay; format: functional, cell-based; conditions: MES-SA/Dx5, 72 h
[5] = Cytotoxicity against human MESSA cells assessed as growth inhibition after 72 hrs by CellTitre-Glo assay; format: functional, cell-based; conditions: MES-SA
NCI/ADR-RES = assay: Cytotoxicity against human NCI/ADR-RES cells assessed as growth inhibition after 96 hrs by Giemsa staining-based light microscopy; format: functional, cell-based
HeLa = assay: Cytotoxicity against human HeLa cells assessed as growth inhibition after 48 hrs by MTT method; format: functional, cell-based
K562 [6] = assay: Cytotoxicity against human K562 cells assessed as growth inhibition after 96 hrs by Giemsa staining-based light microscopy; format: functional, cell-based; conditions: K562, 96 h
[7] = Cell cycle arrest in human PC3 cells assessed as rounded cells at 500 nM after 24 hrs by propidium iodide staining-based flow cytometry; format: functional; conditions: PC-3
RD [8] = assay: Cell cycle arrest in human RD cells assessed as rounded cells at 500 nM after 24 hrs by propidium iodide staining-based flow cytometry; format: functional
HepG2 = assay: Cell cycle arrest in human HepG2 cells at 500 to 2000 nM incubated for 24 hrs followed by compound washout measured after 24 hrs; format: functional, cell-based
RD [9] = assay: Cell cycle arrest in human RD cells assessed as accumulation at G2/M phase at 500 nM after 24 hrs by propidium iodide staining-based flow cytometry; format: functional
[10] = Cell cycle arrest in human PC3 cells at 500 to 2000 nM incubated for 24 hrs followed by compound washout measured after 24 hrs; format: functional, cell-based; conditions: PC-3
RD [11] = assay: Cell cycle arrest in human RD cells at 500 nM incubated for 24 hrs followed by compound washout measured after 24 hrs; format: functional, cell-based
RD [12] = assay: Cell cycle arrest in human RD cells at 1000 to 2000 nM incubated for 24 hrs followed by compound washout measured after 24 hrs; format: functional, cell-based
[13] = Cell cycle arrest in human PC3 cells assessed as accumulation at G2/M phase at 500 nM after 24 hrs by propidium iodide staining-based flow cytometry; format: functional; conditions: PC-3

| SMILES | inhibition (Tubulin (Homo sapiens) [1]) | IC50 (Tubulin) | IC50 (MCF7) | further results |
| --- | --- | --- | --- | --- |
| COc1cc(C(=O)c2ccn(-c3cccc(NS(C)(=O)=O)c3)c2)cc(OC)c1OC | 84% | 860 nM | 60 nM | Activity (K562 [2]): 61% |
| COc1cc(C(=O)c2ccn(-c3ccccc3OC(C)C)c2)cc(OC)c1OC | – | 6100 nM | – | – |
| COc1cc(C(=O)c2ccn(-c3ccccc3[N+](=O)[O-])c2)cc(OC)c1OC | – | – | – | inhibition (Tubulin (Homo sapiens) [3]): inactive |
| COc1cccc(-n2ccc(C(=O)c3cc(OC)c(OC)c(OC)c3)c2)c1 | 66% | 1800 nM | 600 nM | IC50 (HT-29): 800 nM; IC50 (cells): 250 nM; IC50 (A549): 3000 nM; IC50 [4]: 471 nM; IC50 [5]: 262 nM; IC50 (NCI/ADR-RES): 90 nM; IC50 (HeLa): 1000 nM |
| COc1ccc(-n2ccc(C(=O)c3cc(OC)c(OC)c(OC)c3)c2)cc1 | 76% | 1200 nM | 250 nM | IC50 (HT-29): 200 nM; IC50 (cells): 60 nM; IC50 (A549): 80 nM; IC50 [4]: 87 nM; IC50 [5]: 63 nM; IC50 (NCI/ADR-RES): 17 nM; IC50 (HeLa): 150 nM |
| COc1cc(C(=O)c2ccn(-c3cccc(-n4cccc4)c3)c2)cc(OC)c1OC | 27% | 2500 nM | 43 nM | Activity (K562 [2]): 47%; IC50 (K562 [6]): 90 nM |
| COc1cc(C(=O)c2ccn(-c3ccccc3C)c2)cc(OC)c1OC | – | 13000 nM | – | – |
| COc1ccccc1-n1ccc(C(=O)c2cc(OC)c(OC)c(OC)c2)c1 | 50% | 2700 nM | 3500 nM | IC50 (HT-29): 1000 nM; IC50 (cells): 450 nM; IC50 (A549): 1000 nM; IC50 [4]: 653 nM; IC50 [5]: 515 nM; IC50 (NCI/ADR-RES): 200 nM; IC50 (HeLa): 900 nM |
| COc1cc(C(=O)c2ccn(-c3ccccc3O)c2)cc(OC)c1OC | 67% | 1700 nM | 530 nM | – |
| COc1cc(C(=O)c2ccn(C)c2)cc(OC)c1OC | – | > 40000 nM | – | – |
| COc1cc(C(=O)c2ccn(-c3cccc(OCc4ccccc4)c3)c2)cc(OC)c1OC | – | – | – | inhibition (Tubulin (Homo sapiens) [3]): inactive |
| CC[C@]1(O)C[C@H]2CN(CCc3c([nH]c4ccccc34)[C@@](C(=O)OC)(c3cc4c(cc3OC)N(C=O)[C@H]3[C@@](O)(C(=O)OC)[C@H](OC(C)=O)[C@]5(CC)C=CCN6CC[C@]43[C@@H]65)C2)C1 | – | – | – | Activity [7]: Active; Activity (RD [8]): Active; Activity (HepG2): inactive; Activity (RD [9]): Active; Activity [10]: inactive; Activity (RD [11]): Active; Activity (RD [12]): inactive; Activity [13]: Active |
| COc1cc(C(=O)c2ccn(-c3cc(OC)c(OC)c(OC)c3)c2)cc(OC)c1OC | – | > 40000 nM | – | – |
| COc1cc(C(=O)c2ccn(-c3ccccc3N)c2)cc(OC)c1OC | – | 6800 nM | – | – |
| COc1ccc(-n2ccc(C(=O)c3cc(OC)c(OC)c(OC)c3)c2)cc1[N+](=O)[O-] | – | – | 830 nM | – |
| COc1cc(C(=O)c2ccn(-c3cccc(F)c3)c2)cc(OC)c1OC | 55% | 2100 nM | 1300 nM | – |
| COc1cc(C(=O)c2ccn(-c3ccc(OC(C)C)cc3)c2)cc(OC)c1OC | – | – | – | inhibition (Tubulin (Homo sapiens) [3]): inactive |
| COc1cc(C(=O)c2ccn(-c3ccccc3F)c2)cc(OC)c1OC | 77% | 1000 nM | 1000 nM | – |
| COc1cc(C(=O)c2ccn(-c3cccc(C)c3)c2)cc(OC)c1OC | 79% | 950 nM | 50 nM | – |
| COc1cc(C(=O)c2ccn(Cc3ccccc3)c2)cc(OC)c1OC | – | > 40000 nM | – | – |
| COc1cc(C(=O)c2ccn(S(=O)(=O)c3ccccc3)c2)cc(OC)c1OC | – | 16000 nM | – | – |
| COc1cc(C(=O)c2ccn(-c3ccc([N+](=O)[O-])cc3)c2)cc(OC)c1OC | – | – | – | inhibition (Tubulin (Homo sapiens) [3]): inactive |

| SMILES | inhibition (Tubulin (Homo sapiens) [1]) | IC50 (Tubulin) | IC50 (MCF7) | further results |
| --- | --- | --- | --- | --- |
| COc1cc(C(=O)c2ccn(-c3cccc(N(C)C)c3)c2)cc(OC)c1OC | 60% | 1500 nM | 1000 nM | – |
| COc1cc(C(=O)c2ccn(-c3cccc(N4CCCCC4)c3)c2)cc(OC)c1OC | – | – | – | inhibition (Tubulin (Homo sapiens) [3]): inactive |
| COc1cc(C(=O)c2cc[nH]c2)cc(OC)c1OC | – | > 40000 nM | – | – |
| COc1cc(C(=O)c2ccn(-c3ccc(F)cc3)c2)cc(OC)c1OC | 78% | 1400 nM | 190 nM | – |
| O=C(c1ccccc1)c1ccn(-c2ccccc2)c1 | – | – | – | inhibition (Tubulin (Homo sapiens) [3]): inactive |
| COc1ccc(C(=O)c2ccn(-c3cc(OC)c(OC)c(OC)c3)c2)cc1OC(C)C | – | – | – | inhibition (Tubulin (Homo sapiens) [3]): inactive |
| COc1cc(C(=O)c2ccn(-c3cccc([N+](=O)[O-])c3)c2)cc(OC)c1OC | – | 8900 nM | – | – |
| COc1cc(C(=O)c2ccn(-c3cccc(OC(C)C)c3)c2)cc(OC)c1OC | 17% | 2500 nM | 250 nM | – |
| COc1cc(C(=O)c2ccn(-c3ccc(N)cc3)c2)cc(OC)c1OC | 81% | 1300 nM | 15 nM | – |
| COc1cc(-n2ccc(C(=O)c3ccccc3)c2)cc(OC)c1OC | – | – | – | inhibition (Tubulin (Homo sapiens) [3]): inactive |
| COc1cc(C(=O)c2ccn(-c3ccc(Cl)cc3)c2)cc(OC)c1OC | 73% | 2300 nM | 200 nM | – |
| COc1cc(C(=O)c2ccn(-c3ccc(O)cc3)c2)cc(OC)c1OC | 59% | – | 450 nM | – |
| COc1cc(C(=O)c2ccn(-c3ccccc3Cl)c2)cc(OC)c1OC | – | 8800 nM | 4500 nM | – |
| COc1cc(C(=O)c2ccn(-c3ccc(C)cc3)c2)cc(OC)c1OC | 95% | 900 nM | – | Activity (K562 [2]): 61%; IC50 (K562 [6]): 30 nM |
| COc1ccc(-n2ccc(C(=O)c3cc(OC)c(OC)c(OC)c3)c2)cc1O | 79% | 1300 nM | 4500 nM | IC50 (HT-29): > 10000 nM; IC50 (A549): > 10000 nM; IC50 (HeLa): 200 nM |
| COc1ccc(C(=O)c2ccn(-c3cc(OC)c(OC)c(OC)c3)c2)cc1O | – | – | – | inhibition (Tubulin (Homo sapiens) [3]): inactive |
| COc1ccc(-n2ccc(C(=O)c3cc(OC)c(OC)c(OC)c3)c2)cc1N | 89% | 1300 nM | 470 nM | – |
| COc1cc(C(=O)c2ccn(-c3cccc(Cl)c3)c2)cc(OC)c1OC | 58% | 2200 nM | 600 nM | – |
| COc1ccc(-n2ccc(C(=O)c3cc(OC)c(OC)c(OC)c3)c2)cc1OC | 56% | 2100 nM | 100 nM | – |
| COc1cc(C(=O)c2ccn(-c3cccc(O)c3)c2)cc(OC)c1OC | 86% | 1200 nM | 400 nM | – |
| COc1ccc(-n2ccc(C(=O)c3cc(OC)c(OC)c(OC)c3)c2)cc1OC(C)C | 48% | 1700 nM | – | IC50 (HT-29): 800 nM; IC50 (A549): 1000 nM; IC50 (HeLa): 800 nM |
| CNc1cccc(-n2ccc(C(=O)c3cc(OC)c(OC)c(OC)c3)c2)c1 | 92% | 1000 nM | – | Activity (K562 [2]): 61%; IC50 (K562 [6]): 30 nM |
